According to ChEMBL document CHEMBL5505977, “Discovery of novel pyrrolo[2,3-d]pyrimidines as potent menin-mixed lineage leukemia interaction inhibitors” (Eur J Med Chem, 2024):

Assays:
[1] = target: T1, Menin (Homo sapiens, UniProt O00255); assay: Binding affinity to menin (unknown origin) incubated for 1 hr by fluorescence polarization assay
T1 sequence (O00255 whole entry): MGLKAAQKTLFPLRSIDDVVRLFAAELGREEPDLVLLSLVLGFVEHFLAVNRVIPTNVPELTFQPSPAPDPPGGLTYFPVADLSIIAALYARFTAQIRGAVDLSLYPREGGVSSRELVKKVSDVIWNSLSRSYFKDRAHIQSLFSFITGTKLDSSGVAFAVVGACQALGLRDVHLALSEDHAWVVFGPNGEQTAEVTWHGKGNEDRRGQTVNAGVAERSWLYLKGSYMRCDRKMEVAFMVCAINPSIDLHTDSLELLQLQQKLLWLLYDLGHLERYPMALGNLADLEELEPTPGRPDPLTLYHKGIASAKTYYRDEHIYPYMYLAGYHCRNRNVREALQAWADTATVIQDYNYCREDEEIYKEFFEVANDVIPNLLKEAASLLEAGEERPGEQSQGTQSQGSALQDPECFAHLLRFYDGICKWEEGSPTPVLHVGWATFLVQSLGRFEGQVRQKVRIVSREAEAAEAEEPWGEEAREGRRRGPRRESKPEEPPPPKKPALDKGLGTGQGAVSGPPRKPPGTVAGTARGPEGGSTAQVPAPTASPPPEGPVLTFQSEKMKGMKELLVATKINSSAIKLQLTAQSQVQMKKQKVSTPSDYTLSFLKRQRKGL

[2] = system: HL-60; assay: Antiproliferative activity against human HL-60 cells incubated for 72 hrs by MTT assay; assay type: functional, cell-based; details: HL-60, 72 h
[3] = system: MV4-11; assay: cells; details: Homo sapiens, MV4-11, 72 h
Description: Antiproliferative activity against human MV4-11 cells incubated for 72 hrs by MTT assay

[4] = system: MV4-11; assay: Antiproliferative activity against human MV4-11 cells incubated for 7 days by PrestoBlue Cell Viability assay; assay type: functional, cell-based; details: MV4-11, 168 h
[5] = target: Voltage-gated inwardly rectifying potassium channel KCNH2 (Homo sapiens, UniProt Q12809); assay: Inhibition of human ERG expressed in CHO cells by Q-patch clamp assay; assay type: toxicity, cell-based
Sequence of Voltage-gated inwardly rectifying potassium channel KCNH2 (Q12809 whole entry): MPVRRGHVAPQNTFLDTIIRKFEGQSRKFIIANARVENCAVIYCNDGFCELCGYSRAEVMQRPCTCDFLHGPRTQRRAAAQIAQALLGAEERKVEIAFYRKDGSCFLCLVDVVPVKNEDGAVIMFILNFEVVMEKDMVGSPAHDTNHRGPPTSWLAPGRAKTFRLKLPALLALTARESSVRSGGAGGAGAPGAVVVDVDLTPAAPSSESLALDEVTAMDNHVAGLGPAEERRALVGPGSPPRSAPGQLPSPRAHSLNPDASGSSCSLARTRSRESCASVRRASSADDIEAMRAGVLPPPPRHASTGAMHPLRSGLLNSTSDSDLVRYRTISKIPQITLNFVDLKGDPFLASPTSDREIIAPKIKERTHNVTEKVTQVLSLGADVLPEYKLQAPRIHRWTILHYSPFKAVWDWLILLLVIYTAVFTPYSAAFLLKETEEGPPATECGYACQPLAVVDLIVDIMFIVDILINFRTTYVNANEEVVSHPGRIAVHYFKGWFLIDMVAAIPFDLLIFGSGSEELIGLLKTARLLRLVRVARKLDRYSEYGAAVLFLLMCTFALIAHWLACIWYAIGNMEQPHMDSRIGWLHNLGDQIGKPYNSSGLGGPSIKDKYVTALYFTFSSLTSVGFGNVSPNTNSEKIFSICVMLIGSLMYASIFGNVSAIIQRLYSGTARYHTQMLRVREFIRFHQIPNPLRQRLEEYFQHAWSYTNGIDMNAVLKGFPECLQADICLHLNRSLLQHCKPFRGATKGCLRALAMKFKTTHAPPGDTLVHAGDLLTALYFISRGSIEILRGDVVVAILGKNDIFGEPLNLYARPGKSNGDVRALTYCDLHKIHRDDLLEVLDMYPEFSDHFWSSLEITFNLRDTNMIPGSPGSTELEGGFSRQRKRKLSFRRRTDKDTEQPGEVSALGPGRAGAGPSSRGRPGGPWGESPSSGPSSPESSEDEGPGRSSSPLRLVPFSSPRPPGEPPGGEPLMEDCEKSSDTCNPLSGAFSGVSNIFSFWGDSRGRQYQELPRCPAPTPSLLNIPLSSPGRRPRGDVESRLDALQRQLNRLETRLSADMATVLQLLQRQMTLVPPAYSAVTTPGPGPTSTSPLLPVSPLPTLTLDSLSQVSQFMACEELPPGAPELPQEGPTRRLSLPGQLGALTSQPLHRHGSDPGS

[6] = target: Menin/Histone-lysine N-methyltransferase MLL (Homo sapiens, UniProt O00255); assay: Inhibition of human menin-MLL (unknown origin) protein-protein interaction by fluorescence polarization assay
Sequence of Menin/Histone-lysine N-methyltransferase MLL (Q03164 1-2718 partner limits assumed, one chain of several): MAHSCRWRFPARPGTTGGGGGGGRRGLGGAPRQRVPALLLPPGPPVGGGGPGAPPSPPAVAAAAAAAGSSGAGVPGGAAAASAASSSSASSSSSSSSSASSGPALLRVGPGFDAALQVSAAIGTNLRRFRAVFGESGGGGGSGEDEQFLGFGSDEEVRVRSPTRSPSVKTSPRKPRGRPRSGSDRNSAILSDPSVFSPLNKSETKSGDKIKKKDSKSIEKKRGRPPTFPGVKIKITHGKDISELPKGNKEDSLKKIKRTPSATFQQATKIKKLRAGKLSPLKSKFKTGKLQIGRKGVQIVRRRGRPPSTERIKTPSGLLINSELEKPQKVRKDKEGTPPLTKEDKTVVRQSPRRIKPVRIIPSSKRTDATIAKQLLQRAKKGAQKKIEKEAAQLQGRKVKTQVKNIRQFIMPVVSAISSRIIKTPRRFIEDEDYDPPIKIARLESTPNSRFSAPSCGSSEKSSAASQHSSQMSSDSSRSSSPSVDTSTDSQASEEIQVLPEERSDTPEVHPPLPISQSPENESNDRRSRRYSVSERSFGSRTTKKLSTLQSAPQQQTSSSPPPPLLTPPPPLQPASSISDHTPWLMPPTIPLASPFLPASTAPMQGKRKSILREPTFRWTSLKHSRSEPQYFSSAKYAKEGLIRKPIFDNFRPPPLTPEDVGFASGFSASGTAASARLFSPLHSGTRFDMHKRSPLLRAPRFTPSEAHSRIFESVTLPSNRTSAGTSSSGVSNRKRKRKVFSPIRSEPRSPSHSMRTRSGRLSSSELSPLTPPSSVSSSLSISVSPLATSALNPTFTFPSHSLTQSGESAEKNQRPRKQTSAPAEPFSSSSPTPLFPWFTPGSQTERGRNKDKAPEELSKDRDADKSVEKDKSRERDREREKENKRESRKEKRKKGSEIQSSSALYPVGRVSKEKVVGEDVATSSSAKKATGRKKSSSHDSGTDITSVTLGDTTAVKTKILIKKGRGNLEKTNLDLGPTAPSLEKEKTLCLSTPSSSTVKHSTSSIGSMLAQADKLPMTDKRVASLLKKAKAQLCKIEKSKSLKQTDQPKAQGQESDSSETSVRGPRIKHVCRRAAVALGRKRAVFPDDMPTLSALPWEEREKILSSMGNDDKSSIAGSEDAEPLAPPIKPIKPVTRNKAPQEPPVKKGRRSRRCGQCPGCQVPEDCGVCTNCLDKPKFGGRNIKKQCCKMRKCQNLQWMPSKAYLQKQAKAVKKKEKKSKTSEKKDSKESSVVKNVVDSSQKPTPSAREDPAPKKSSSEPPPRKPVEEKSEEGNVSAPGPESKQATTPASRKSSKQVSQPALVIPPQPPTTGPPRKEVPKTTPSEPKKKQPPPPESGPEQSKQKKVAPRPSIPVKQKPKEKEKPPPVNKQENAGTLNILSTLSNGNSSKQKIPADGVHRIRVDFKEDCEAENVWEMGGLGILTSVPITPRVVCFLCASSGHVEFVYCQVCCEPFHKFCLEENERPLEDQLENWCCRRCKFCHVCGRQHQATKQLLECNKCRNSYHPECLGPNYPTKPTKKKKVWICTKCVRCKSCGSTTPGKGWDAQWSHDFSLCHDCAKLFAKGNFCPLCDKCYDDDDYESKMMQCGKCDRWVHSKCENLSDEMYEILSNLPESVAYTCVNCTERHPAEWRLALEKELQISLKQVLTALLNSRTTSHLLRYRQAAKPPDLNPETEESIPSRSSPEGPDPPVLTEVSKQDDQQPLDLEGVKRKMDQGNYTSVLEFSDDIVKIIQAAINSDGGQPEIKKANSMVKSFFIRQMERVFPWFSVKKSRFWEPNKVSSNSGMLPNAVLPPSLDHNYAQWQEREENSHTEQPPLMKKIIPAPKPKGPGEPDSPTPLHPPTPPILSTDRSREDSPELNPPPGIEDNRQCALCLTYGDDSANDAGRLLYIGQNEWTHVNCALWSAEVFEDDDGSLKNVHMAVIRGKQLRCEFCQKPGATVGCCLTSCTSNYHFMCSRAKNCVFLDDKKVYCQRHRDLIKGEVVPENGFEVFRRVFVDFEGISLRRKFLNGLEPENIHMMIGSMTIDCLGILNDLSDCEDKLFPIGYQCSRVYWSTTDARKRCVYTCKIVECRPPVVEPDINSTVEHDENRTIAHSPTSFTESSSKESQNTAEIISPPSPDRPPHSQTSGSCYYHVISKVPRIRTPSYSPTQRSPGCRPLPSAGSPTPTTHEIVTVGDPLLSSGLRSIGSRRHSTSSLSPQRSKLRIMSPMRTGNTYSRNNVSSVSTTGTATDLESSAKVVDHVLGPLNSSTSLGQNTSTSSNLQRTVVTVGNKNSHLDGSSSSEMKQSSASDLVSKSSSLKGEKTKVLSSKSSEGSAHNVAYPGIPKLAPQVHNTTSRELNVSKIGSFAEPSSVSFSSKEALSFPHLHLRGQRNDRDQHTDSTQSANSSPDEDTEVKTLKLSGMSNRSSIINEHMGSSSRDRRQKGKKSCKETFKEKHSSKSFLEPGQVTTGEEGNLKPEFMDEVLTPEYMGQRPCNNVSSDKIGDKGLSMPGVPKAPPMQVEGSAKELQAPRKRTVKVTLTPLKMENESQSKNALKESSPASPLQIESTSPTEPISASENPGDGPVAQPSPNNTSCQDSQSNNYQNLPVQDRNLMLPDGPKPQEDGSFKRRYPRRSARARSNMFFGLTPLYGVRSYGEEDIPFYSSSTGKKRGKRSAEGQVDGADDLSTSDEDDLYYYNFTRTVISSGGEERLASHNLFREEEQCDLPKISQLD
Sequence of Menin/Histone-lysine N-methyltransferase MLL (Q03164 2719-3969 partner limits assumed, one chain of several): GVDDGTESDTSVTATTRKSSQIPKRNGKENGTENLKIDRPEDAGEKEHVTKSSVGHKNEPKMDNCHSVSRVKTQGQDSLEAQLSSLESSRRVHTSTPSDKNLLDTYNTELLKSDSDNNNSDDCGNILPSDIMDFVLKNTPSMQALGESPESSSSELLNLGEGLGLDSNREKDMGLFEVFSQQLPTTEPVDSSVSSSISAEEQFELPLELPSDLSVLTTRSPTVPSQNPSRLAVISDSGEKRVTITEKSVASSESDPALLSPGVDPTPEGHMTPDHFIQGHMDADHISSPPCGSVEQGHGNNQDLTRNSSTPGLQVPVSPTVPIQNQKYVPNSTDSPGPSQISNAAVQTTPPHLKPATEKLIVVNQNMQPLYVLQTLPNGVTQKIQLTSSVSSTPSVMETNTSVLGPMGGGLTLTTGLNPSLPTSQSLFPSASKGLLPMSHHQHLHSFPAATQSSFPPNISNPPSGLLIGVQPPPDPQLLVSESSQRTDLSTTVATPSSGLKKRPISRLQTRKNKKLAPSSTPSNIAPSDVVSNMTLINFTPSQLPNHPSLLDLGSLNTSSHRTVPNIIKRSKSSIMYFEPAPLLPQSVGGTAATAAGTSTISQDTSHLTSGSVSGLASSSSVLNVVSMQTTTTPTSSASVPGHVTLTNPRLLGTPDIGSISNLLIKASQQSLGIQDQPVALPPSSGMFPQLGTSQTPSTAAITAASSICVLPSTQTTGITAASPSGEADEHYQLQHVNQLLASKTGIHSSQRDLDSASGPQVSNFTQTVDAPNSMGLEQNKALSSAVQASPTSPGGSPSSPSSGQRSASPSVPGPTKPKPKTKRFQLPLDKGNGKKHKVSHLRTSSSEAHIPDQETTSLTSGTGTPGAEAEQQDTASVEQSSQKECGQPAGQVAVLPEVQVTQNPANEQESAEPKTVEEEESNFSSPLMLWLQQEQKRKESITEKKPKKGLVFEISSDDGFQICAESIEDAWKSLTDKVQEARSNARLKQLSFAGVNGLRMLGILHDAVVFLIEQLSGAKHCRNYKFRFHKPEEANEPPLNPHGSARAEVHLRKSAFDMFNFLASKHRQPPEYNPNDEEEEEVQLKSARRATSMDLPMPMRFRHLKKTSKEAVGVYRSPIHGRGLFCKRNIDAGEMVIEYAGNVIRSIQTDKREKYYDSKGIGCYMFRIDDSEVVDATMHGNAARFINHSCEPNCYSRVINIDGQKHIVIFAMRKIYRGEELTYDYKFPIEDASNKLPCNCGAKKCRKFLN

| IC50 [1] [nM] | IC50 [2] [nM] | IC50 [3] [nM] | IC50 [4] [nM] | IC50 [6] [nM] | Compound | IC50 [5] [nM] |
| --- | --- | --- | --- | --- | --- | --- |
| 1140 | > 10000 | 1350 |  |  | CC(C)(C)OC(=O)N1CC(S(=O)(=O)c2ccc(N3CC(CN4CCC(n5cc(-c6ccc(F)cc6)c6c(N)ncnc65)CC4)C3)cc2)C1 |  |
|  |  |  | 73 |  | CC(C)N(C)C(=O)c1cc(F)ccc1-n1cc(C2CCN(C(=O)[C@H]3NC4CCC3CC4)CC2)c2ccncc21 | > 100000 |
| 250 | > 10000 | 2000 |  |  | Nc1ncnc2c1c(-c1ccc(F)cc1)cn2C1CCN(CC2CN(c3ccc(S(=O)(=O)C4CCCCC4)cc3)C2)CC1 |  |
| 1220 | > 10000 | > 10000 |  |  | Nc1ncnc2c1c(-c1ccc(F)cc1)cn2C1CCN(CC2CN(c3ccc(S(=O)(=O)c4ccncc4)cc3)C2)CC1 |  |
| 730 | > 10000 | 2050 |  |  | CS(=O)(=O)c1ccc(N2CC(CN3CCC(n4cc(-c5ccc(F)cc5)c5c(N)ncnc54)CC3)C2)cc1 |  |
| 450 | > 10000 | 1290 |  |  | CCS(=O)(=O)c1ccc(N2CC(CN3CCC(n4cc(-c5ccc(F)cc5)c5c(N)ncnc54)CC3)C2)cc1 |  |
| 1470 | > 10000 | 5200 |  |  | N#Cc1ccc(N2CC(CN3CCC(n4ccc5c(N)ncnc54)CC3)C2)cc1 |  |
|  |  |  |  | 0.51 | CNc1nc(NC2CCN(Cc3ccc4c(cc(C#N)n4CC45CC(NC=O)(C4)C5)c3C)CC2)c2cc(CC(F)(F)F)sc2n1 |  |
| > 10000 | > 10000 | > 10000 |  |  | N#Cc1ccc(N2CC(CN3CCC(n4ccc5cncnc54)CC3)C2)cc1 |  |
